Reference: US20130177991A1, “A[…] EMISSION LUMINOGEN-BASED URINARY PROTEIN DETECTION DEVICE FOR […] HEALTH” (NANO AND ADVANCED MATERIALS INSTITUTE LIMITED, priority 2012, published 2013)

Columns and labels:
HSA [1] = molecular target: T1, HSA (Homo sapiens, UniProt P02768); assay: Fluorescence turn-on assay of HSA in PBS buffer; assay type: binding
T1 construct: purchased Sigma-Aldrich
Experimental: FIG. 2: (A) Fluorescent (FL) spectra of compound 1, SATPE in phosphate buffered saline (PBS) buffer containing different concentrations of HSA; (B) Change in the FL intensity at 475 nm with HSA concentration; Io=FL intensity in the absence of HSA. Inset: linear region of the binding isotherm of SATPE to HSA. [SATPE]=5 μM; λex=350 nm.
(§1) In another embodiment, Compound 1 is AIE-active as it emits faintly in PBS buffer but gives strong light upon aggregate formation. Its solution in PBS buffer is weakly luminescent at 390 nm in the absence of HSA (FIG. 2). […] The higher the HSA content, the stronger is the light emission. The detection limit can be squeezed to as low as 1 nM. In order to examine the feasibility of protein assay in body fluids, artificial urine is utilized as medium in the protein assay.

HSA [2] = molecular target: T1, HSA; assay: Selectivity of fluorescence response to HSA against other proteins and DNAs; assay type: binding; details: FIG. 3B, [SATPE]=5 μM, [protein]=100 μg/mL
Experimental: FIG. 3: (A) Binding isotherm of HSA to SATPE in artificial urine and PBS buffer; (B) Dependence of the FL intensity of SATPE at 475 nm on different proteins in artificial urine and PBS buffer. [SATPE]=5 μM; [protein]=100 μg/mL; λex=350 nm.
as §1

T1 sequence (P02768 25-609): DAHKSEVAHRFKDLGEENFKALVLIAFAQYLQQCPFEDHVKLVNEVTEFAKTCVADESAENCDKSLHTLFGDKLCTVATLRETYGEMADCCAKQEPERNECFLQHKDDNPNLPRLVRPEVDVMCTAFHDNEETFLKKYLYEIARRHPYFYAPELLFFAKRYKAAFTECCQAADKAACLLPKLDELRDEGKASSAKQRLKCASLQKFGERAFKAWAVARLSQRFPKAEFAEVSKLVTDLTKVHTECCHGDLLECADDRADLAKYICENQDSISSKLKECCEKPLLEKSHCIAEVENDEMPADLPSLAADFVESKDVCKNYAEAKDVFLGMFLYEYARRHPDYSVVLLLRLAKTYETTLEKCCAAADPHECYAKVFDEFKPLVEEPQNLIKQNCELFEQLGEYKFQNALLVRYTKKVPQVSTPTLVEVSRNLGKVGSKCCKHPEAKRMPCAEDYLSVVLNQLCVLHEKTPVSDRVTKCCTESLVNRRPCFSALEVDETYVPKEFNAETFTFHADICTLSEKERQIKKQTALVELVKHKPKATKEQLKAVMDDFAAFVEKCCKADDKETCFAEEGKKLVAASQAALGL

O=S(=O)([O-])CCCOc1ccc(C(=C(c2ccccc2)c2ccc(OCCCS(=O)(=O)[O-])cc2)c2ccccc2)cc1.[Na+].[Na+] [Compound 1]
detection limit for HSA (HSA [1]; emission at 475 nm): 1 nM | light emission upon addition of HSA (HSA [1]; weakly luminescent at 390 nm in the absence of HSA): emit intensely at 475 nm | response to other human proteins and DNAs (HSA [2]): no significant response | selectivity to HSA (HSA [2]; artificial urine and PBS buffer): excellent selectivity to HSA
